Structures can show the parent of a compound that is named as a salt.
Molecular target: T1, human TLR9 (hTLR9) (Homo sapiens, UniProt Q9NR96)
T1 construct: expressed in transfected cells
T1 sequence (Q9NR96 26-1032): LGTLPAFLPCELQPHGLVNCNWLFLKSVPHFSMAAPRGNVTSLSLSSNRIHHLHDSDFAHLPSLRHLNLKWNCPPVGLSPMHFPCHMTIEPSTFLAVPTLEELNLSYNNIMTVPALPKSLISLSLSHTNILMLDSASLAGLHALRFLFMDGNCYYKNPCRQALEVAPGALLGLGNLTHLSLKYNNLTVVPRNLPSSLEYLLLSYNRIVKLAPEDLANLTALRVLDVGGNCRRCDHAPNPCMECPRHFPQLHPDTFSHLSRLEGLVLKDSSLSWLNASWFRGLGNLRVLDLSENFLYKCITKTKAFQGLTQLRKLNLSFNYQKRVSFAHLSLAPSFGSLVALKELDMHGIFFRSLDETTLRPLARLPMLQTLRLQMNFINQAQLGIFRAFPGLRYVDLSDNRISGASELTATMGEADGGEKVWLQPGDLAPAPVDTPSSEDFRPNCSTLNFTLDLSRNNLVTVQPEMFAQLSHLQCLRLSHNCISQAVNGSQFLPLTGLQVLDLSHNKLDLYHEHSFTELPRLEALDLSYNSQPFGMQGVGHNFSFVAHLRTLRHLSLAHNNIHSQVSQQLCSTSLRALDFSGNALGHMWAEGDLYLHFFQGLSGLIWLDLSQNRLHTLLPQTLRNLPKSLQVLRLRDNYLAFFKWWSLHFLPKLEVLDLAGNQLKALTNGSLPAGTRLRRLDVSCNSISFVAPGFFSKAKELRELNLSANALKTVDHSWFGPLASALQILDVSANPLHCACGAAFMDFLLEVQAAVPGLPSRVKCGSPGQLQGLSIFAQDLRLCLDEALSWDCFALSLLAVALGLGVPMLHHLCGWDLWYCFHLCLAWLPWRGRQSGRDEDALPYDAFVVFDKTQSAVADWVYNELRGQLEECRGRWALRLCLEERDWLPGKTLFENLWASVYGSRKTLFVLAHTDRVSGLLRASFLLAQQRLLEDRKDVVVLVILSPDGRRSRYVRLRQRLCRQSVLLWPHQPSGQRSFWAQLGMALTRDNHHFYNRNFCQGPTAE
Test: Antagonist screen, hTLR9-NFκB-293 cells, 6× NF-κB-luciferase reporter, with EC50 of CpG ODN 2006
Assay type: cell-based
Conditions: compound at 0.5, 5, 50 μg/ml; EC50 concentration of CpG ODN 2006; 16 h; NF-κB-luciferase
Procedure, shortened: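 Luciferase fold induction was compared with the ligand-alone baseline, and antagonism was scored by the lowest concentration giving clear down-regulation.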

Row | SMILES | hTLR9 (inhibitory effect, antagonist score)
1 | CN1CCc2cccc3c2[C@H]1Cc1ccc(O)c(O)c1-3.Cl [compound 101, Apomorphinehydrochloride (R, —)] | 12 (compounds for which there was clear down regulation at 5 μg/ml and 50 μg/ml)
2 | CC(C)(C)c1ccc(C(O)CCCN2CCC(C(O)(c3ccccc3)c3ccccc3)CC2)cc1 (stereo not shown) [compound 138, Terfenadine] | 12 (compounds for which there was clear down regulation at 5 μg/ml and 50 μg/ml)
3 | CN(C)C(=O)C(CCN1CCC(O)(c2ccc(Cl)cc2)CC1)(c1ccccc1)c1ccccc1 [compound 144, Loperamidehydrochloride] | 12 (compounds for which there was clear down regulation at 5 μg/ml and 50 μg/ml)
4 | COc1cc2c(cc1O)C[C@H]1c3c(cc(O)c(OC)c3-2)CCN1C [compound 600, Boldine] | 12 (compounds for which there was clear down regulation at 5 μg/ml and 50 μg/ml)
5 | CN1CCc2cc3c(c4c2C1Cc1ccccc1-4)OCO3.Cl (stereo not shown) [compound 669, Remerine hydrochloride] | — (compounds for which there was no clear down regulation even at 50 μg/ml)
6 | COc1cc2nc(N3CCN(C(=O)C4CCCO4)CC3)nc(N)c2cc1OC.Cl (stereo not shown) [compound 751, Terazosin hydrochloride] | 13 (compounds for which there was clear down regulation at 0.5 μg/ml, 5 μg/ml, and 50 μg/ml)
7 | COc1cc2nc(N3CCN(C(=O)C4COc5ccccc5O4)CC3)nc(N)c2cc1OC.CS(=O)(=O)O (stereo not shown) [compound 858, Doxazosin mesylate] | 13 (compounds for which there was clear down regulation at 0.5 μg/ml, 5 μg/ml, and 50 μg/ml)
8 | CCN(CC)CCCC(C)Nc1nc(/C=C/c2ccc(Cl)cc2)nc2cc3ccccc3cc12 (stereo not shown) [compound 2000] | 13 (compounds for which there was clear down regulation at 0.5 μg/ml, 5 μg/ml, and 50 μg/ml)
9 | CCN(CC)CCCNc1nc(-c2ccccc2)nc2ccccc12 [compound 2001] | 13 (compounds for which there was clear down regulation at 0.5 μg/ml, 5 μg/ml, and 50 μg/ml)

Same assay, conditions: hTLR9-NFκB-293 cells, with EC50 of CpG ODN 2006; compound at 0.5, 5 and 50 μg/ml

Row | SMILES | hTLR9 (inhibitory effect)
10 | COc1cc2cc3c4cc(OC)c(OC)cc4cc[n+]3c(C)c2cc1OC [compound 431, Coralyne chloridehydrate] | 13 (compounds for which there was clear down regulation at 0.5 μg/ml, 5 μg/ml, and 50 μg/ml)
11 | COc1ccc(Cc2nccc3cc(OC)c(OC)cc23)cc1OC.Cl [compound 583, Papaverinehydrochloride] | 12 (compounds for which there was clear down regulation at 5 μg/ml and 50 μg/ml)
12 | COc1ccc2cc3[n+](cc2c1OC)CCc1cc2c(cc1-3)OCO2.[Cl-] [compound 586, Berberine chloride] | — (compounds for which there was no clear down regulation even at 50 μg/ml)
13 | CC[N+](C)(CC)CCC[n+]1c(-c2ccccc2)c2cc(N)ccc2c2ccc(N)cc21.[I-].[I-] [compound 792, Propidium iodide] | 12 (compounds for which there was clear down regulation at 5 μg/ml and 50 μg/ml)
14 | CN(C)CCN(Cc1ccc(Cl)cc1)c1ccccn1.Cl [compound 807, Chloro-pyraminehydrochloride] | 12 (compounds for which there was clear down regulation at 5 μg/ml and 50 μg/ml)
15 | CCOc1ccc(Cc2nccc3cc(OCC)c(OCC)cc23)cc1OCC.Cl [compound 830, Ethaverinehydrochloride] | 11 (compounds for which there was clear down regulation only at 50 μg/ml)
16 | O=c1c2c(nc(NCCO)n1-c1ccccc1)-c1ccccc1CC21CCCC1 [compound 891] | 11 (compounds for which there was clear down regulation only at 50 μg/ml)
17 | O=c1c2c(nc(NCCO)n1Cc1ccccc1)-c1ccccc1CC21CCCC1 [compound 926] | 11 (compounds for which there was clear down regulation only at 50 μg/ml)
18 | CN1CCc2c1nc1ccccc1c2N [compound 990, 1-Methyl-2,3-dihydro-1H-pyrrolo[2,3-b]quinolin-4-ylamine] | 13 (compounds for which there was clear down regulation at 0.5 μg/ml, 5 μg/ml, and 50 μg/ml)
19 | CN1CCc2c1nc1ccccc1c2NC(=O)CN1CCCCCC1 [compound 1003] | 13 (compounds for which there was clear down regulation at 0.5 μg/ml, 5 μg/ml, and 50 μg/ml)
20 | Cc1ccc2nc3c(c(N)c2c1)CCN3C [compound 1091, 1,6-Dimethyl-2,3-dihydro-1H-pyrrolo[2,3-b]quinolin-4-ylamine] | 13 (compounds for which there was clear down regulation at 0.5 μg/ml, 5 μg/ml, and 50 μg/ml)
21 | Cc1ccc(-n2c(NCCO)nc3c(c2=O)C2(CCCCC2)Cc2ccccc2-3)cc1 [compound 1137] | 11 (compounds for which there was clear down regulation only at 50 μg/ml)
22 | CN1CCc2c1nc1ccc(Br)cc1c2N [compound 1142, 6-Bromo-1-methyl-2,3-dihydro-1H-pyrrolo[2,3-b]quinolin-4-ylamine] | 13 (compounds for which there was clear down regulation at 0.5 μg/ml, 5 μg/ml, and 50 μg/ml)
23 | O=C1c2ccc(S(=O)(=O)c3ccc4c(c3)C(=O)N(c3ccccn3)C4=O)cc2C(=O)N1c1ccccn1 [compound 1163] | 11 (compounds for which there was clear down regulation only at 50 μg/ml)
24 | CN1CCCCc2c1nc1ccccc1c2N [compound 1185, 1-Methyl-2,3,4,5-tetrahydro-1H-azepino[2,3-b]quinolin-6-ylamine] | 13 (compounds for which there was clear down regulation at 0.5 μg/ml, 5 μg/ml, and 50 μg/ml)
25 | CN1CCc2c1nc1ccccc1c2NC(=O)CN1CCN(c2ccccc2)CC1 [compound 1212] | 12 (compounds for which there was clear down regulation at 5 μg/ml and 50 μg/ml)
26 | Cn1c(NN)nc2c(c1=O)C1(CCCC1)Cc1ccccc1-2 [compound 1213] | — (compounds for which there was no clear down regulation even at 50 μg/ml)
27 | Nc1c2c(nc3ccccc13)N(Cc1ccccc1)CC2 [compound 1217, 1-Benzyl-2,3-dihydro-1H-pyrrolo[2,3-b]quinolin-4-ylamine] | 13 (compounds for which there was clear down regulation at 0.5 μg/ml, 5 μg/ml, and 50 μg/ml)
28 | CCCCCCN(CCCCCC)CC(=O)Nc1c2c(nc3ccccc13)N(C)CC2 [compound 1224] | 11 (compounds for which there was clear down regulation only at 50 μg/ml)
29 | O=C(CN1CCCC1)Nc1c2c(nc3ccccc13)N(c1ccccc1)CC2 [compound 1244] | 12 (compounds for which there was clear down regulation at 5 μg/ml and 50 μg/ml)
30 | NNc1nc2c(c(=O)n1C1CCCC1)C1(CCCC1)Cc1ccccc1-2 [compound 1248] | — (compounds for which there was no clear down regulation even at 50 μg/ml)
31 | NNc1nc2c(c(=O)n1-c1ccccc1)C1(CCCC1)Cc1ccccc1-2 [compound 1320] | 13 (compounds for which there was clear down regulation at 0.5 μg/ml, 5 μg/ml, and 50 μg/ml)
32 | O=c1[nH]c(NCCO)nc2c1C1(CCCC1)Cc1ccccc1-2 [compound 1322] | — (compounds for which there was no clear down regulation even at 50 μg/ml)
33 | CCCCCCCCCCCC(=O)Nc1c2c(nc3ccccc13)N(C)CC2 [compound 1334] | 11 (compounds for which there was clear down regulation only at 50 μg/ml)
34 | O=C1c2ccc(Oc3ccc(S(=O)(=O)c4ccc(Oc5ccc6c(c5)C(=O)N(c5ccccn5)C6=O)cc4)cc3)cc2C(=O)N1c1ccccn1 [compound 1367] | — (compounds for which there was no clear down regulation even at 50 μg/ml)

— patent US7410975B2, “Small molecule toll-like receptor (TLR) antagonists” (Coley Pharmaceutical Group, Inc., priority 2003, dated 2008)
